These results are taken from US8309580B2, “Heterocyclic compound” (Takeda Pharmaceutical Company Limited, priority 2007, dated 2012).

SMILES strings stand for the structures.

Experiment [1] addresses human-type glucagon receptor (Homo sapiens, UniProt P47871). As to the kind of experiment: Glucagon binding inhibitory activity ([125I]-glucagon binding to glucagon receptor membrane protein). Particulars: glucagon receptor membrane protein from FreeStyle CHO cells, 90 min at room temperature. On the procedure: The glucagon binding inhibitory action of the compound of the present invention was evaluated by the following method.
(1) Preparation of Glucagon Receptor Membrane Protein
A human-type glucagon receptor was expressed using FreeStyle CHO Expression System (Invitrogen). A transient expression in FreeStyle CHO cell was performed using a human-type glucagon expression plasmid DNA and according to the manual attached to the FreeStyle CHO Expression System. The above-mentioned DNA was transfected and the cultured with shaking for 2 days (37° C., 8% CO2, 125 rpm). 2400 ml of culture medium was centrifuged at 2,000 rpm for 10 min and the cells were collected. The collected cells were washed with PBS, suspended in homogenate buffer [10 mM NaHCO3 (pH 7.4), 1 mM EDTA, Complete EDTA-free (Roche, 1 tablet/50 mL)] and disrupted by polytron cell disrupter (Kinematica AG). Disruption solution was centrifuged at 2,000 rpm for 10 min and the supernatant was collected. The supernatant was centrifuged at 35,000 rpm for 60 min and the precipitate was suspended in a buffer [20 mM Tris-HCl (pH 7.4), 5 mM EDTA, Complete EDTA-free (Roche, 1 tablet/50 mL)] to give a glucagon receptor membrane protein (452 mg).
(2) Measurement of Glucagon Binding Inhibitory Activity
To each well of 96 well plate (Corning Incorporated) were added 25 μl of test compound (containing 0.4% DMSO), 50 μl of glucagon receptor membrane protein diluted with reaction buffer [50 mM Tris-HCl (pH 7.4), 5 mM EGTA, 5 mM magnesium chloride, 0.1% BSA, 0.005% Tween20] to 100 μg/ml, and 25 μl of radioactive labeled glucagon ([^125I]-Receptor Grade Glucagon; Perkin Elmer Inc.) diluted with the reaction buffer to 200 pM, whereby the reaction was started. The plate was stood for 90 min at room temperature. The reaction solution was transferred from the reaction plate to a 96 well unifilter GF/C plate (Perkin Elmer Inc.) using a cell harvester (Perkin Elmer Inc.) and the membrane fraction was collected on the filter by suction. The filter was presoaked in 2 mg/ml of polyethyleneimine to prevent non-specific adsorption of labeled ligand. The filter was washed 4 times with a reaction buffer and dried for 2 hr at 42° C. To each well was added 25 μl of scintillator (MicroScint0; Perkin Elmer Inc.), and the fluorescence amount was measured using a microplate scintillation counter (TopCount NXT™; Perkin Elmer Inc.). The glucagon binding inhibitory activity (IC50 value) of the well added with the test compound (containing 0.4% DMSO) was calculated, using the reaction rate of the well added only with 0.4% DMSO as 0% inhibitory rate, and the reaction rate of the well added with non-labeled glucagon (final concentration 1 μM) as 100% inhibitory rate.

In experiment [2] the test system is glucagon-induced blood glucose increase. As to the kind of experiment: Test of glucagon-induced blood glucose increase-suppressive action in mouse. It is filed as in vivo. Particulars: male ICR mouse, fasted; test compound 10 mg/kg orally 60 min before s.c. glucagon 10 μg/kg with octreotide; blood glucose 30 min after glucagon. On the procedure: Test of Glucagon-Induced Blood Glucose Increase-Suppressive Action in Mouse
Full feeding ICR mouse (male, 7-week-old) was fasted, and 0.5% methylcellulose suspension (compound-administration group, 8 mice per group) containing a test compound (10 mg/kg body weight) or 0.5% methylcellulose suspension (compound-non-administration group, 8 mice per group) was orally administered. After 60 minutes, glucagon (10 μg/kg body weight, Novo Nordisk Pharma Ltd.) containing octreotide (100 μg/kg body weight, Novo Nordisk Pharma Ltd.) was subcutaneously administered. After 30 minutes from the glucagon administration, blood samples were collected from the tail vein of the mouse, and the blood glucose level was measured by a glucose self-test kit ACCU-CHEK (Roche Diagnostics K.K.). As a non-treatment group (8 mice per group), the blood glucose level of mouse of the compound-non-administration group, which was free of glucagon administration, was measured in the same manner as in the above.
The differences between the average blood glucose level of the compound-non-administration group, the average blood glucose level of the compound administration group, and the average blood glucose level of the non-treatment group were each calculated, and the percentage of the “difference between the blood glucose level of the compound administration group and that of the non-treatment group” relative to the “difference between the blood glucose level of the compound-non-administration group and that of the non-treatment group” as 100% was determined as an “increasing rate of blood glucose (% of control)”.

human-type glucagon receptor, sequence (P47871 26-477): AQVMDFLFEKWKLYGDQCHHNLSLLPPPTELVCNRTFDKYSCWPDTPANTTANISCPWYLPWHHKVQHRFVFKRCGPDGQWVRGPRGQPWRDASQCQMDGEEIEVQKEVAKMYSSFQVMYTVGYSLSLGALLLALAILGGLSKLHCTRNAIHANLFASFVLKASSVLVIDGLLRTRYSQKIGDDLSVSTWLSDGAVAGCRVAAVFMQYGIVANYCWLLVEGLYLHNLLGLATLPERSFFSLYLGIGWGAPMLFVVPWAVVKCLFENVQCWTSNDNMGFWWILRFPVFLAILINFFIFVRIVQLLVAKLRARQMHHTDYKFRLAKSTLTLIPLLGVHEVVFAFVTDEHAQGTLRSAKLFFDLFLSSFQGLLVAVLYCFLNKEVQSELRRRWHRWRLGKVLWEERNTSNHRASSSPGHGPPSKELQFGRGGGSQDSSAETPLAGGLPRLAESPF

Regarding `COCc1oc(-c2ccc(F)cc2)cc1C(Nc1ccc(C(=O)N(C)CCC(=O)O)cc1)C1CCCCC1` (centres unmarked) [Ex. 314, 3-[{[4-({cyclohexyl[5-(4-fluorophenyl)-2-(methoxymethyl)furan-3-yl]methyl}amino)phenyl]carbonyl}(methyl)amino]propanoic acid], the IC50 in experiment [1] stood at 290 nM. On to `CCc1oc(-c2ccc(C(F)(F)F)cc2)cc1C(Nc1ccc(C(=O)N(C)CCC(=O)O)cc1)C1CCCCC1` (centres unmarked) [Ex. 10, 3-[{4-[(cyclohexyl{2-ethyl-5-[4-(trifluoromethyl)phenyl]-3-furyl}methyl)amino]benzoyl}(methyl)amino]propanoic acid], for which the IC50 in experiment [1] turned out to be 250 nM. For the molecule `COc1ccc(-c2cc(C(CC(C)C)Nc3ccc(C(=O)N(C)CCC(=O)O)cc3)c(C)o2)cn1` (single isomer, unassigned) [Ex. 319, 3-[{[4-({1-[5-(6-methoxypyridin-3-yl)-2-methylfuran-3-yl]-3-methylbutyl}amino)phenyl]carbonyl}(methyl)amino]propanoic acid], the half-inhibitory concentration (IC50) in experiment [1] came out at 230 nM. The IC50 values of the last two molecules are within 1.5-fold of each other.

In experiment [1], `CCc1sc(CC(C)C)cc1C(Nc1ccc(C(=O)NCCC(=O)O)cc1)C1CCCCC1` (centres unmarked) [Ex. 83, 3-({[4-({cyclohexyl[2-ethyl-5-(2-methylpropyl)thiophen-3-yl]methyl}amino)phenyl]carbonyl}amino)propanoic acid] returned a half-inhibitory concentration (IC50) of 190 nM.

As for `Cc1oc(-c2ccc(F)cc2)cc1C(Nc1ccc(C(=O)N(C)CCC(=O)O)nc1)C1CCCCC1` (centres unmarked) [Ex. 318, 3-[{[5-({cyclohexyl[5-(4-fluorophenyl)-2-methylfuran-3-yl]methyl}amino)pyridin-2-yl]carbonyl}(methyl)amino]propanoic acid], in experiment [1], the half-maximal inhibitory concentration (IC50) is 400 nM. Same read-out and setting: as for `Cc1sc(-c2ccccc2)cc1C(Nc1ccc(C(=O)N(C)CCC(=O)O)nc1)C1CCCCC1` (centres unmarked) [Ex. 311, 3-{[(5-{[cyclohexyl(2-methyl-5-phenylthiophen-3-yl)methyl]amino}pyridin-2-yl)carbonyl](methyl)amino}propanoic acid], the figure is 650 nM. For the molecule `COc1ccc(-c2cc(C(Nc3ccc(C(=O)N(C)CCC(=O)O)cc3)C3CCCCC3)c(C)o2)cn1` (single isomer, unassigned) [Ex. 166, 3-[{[4-({cyclohexyl[5-(6-methoxypyridin-3-yl)-2-methylfuran-3-yl]methyl}amino)phenyl]carbonyl}(methyl)amino]propanoic acid], the IC50 in experiment [1] was found to be 180 nM. As to `CCc1oc(-c2ccc(C(F)(F)F)cc2)cc1C(Nc1ccc(C(=O)N(C)CCC(=O)O)cc1)C1CCCCC1` (centres unmarked) [Ex. 87, 3-[({4-[(cyclohexyl{2-ethyl-5-[4-(trifluoromethyl)phenyl]furan-3-yl}methyl)amino]phenyl}carbonyl)(methyl)amino]propanoic acid], the “increasing rate of blood glucose (% of control)” value in experiment [2] is 6.5 % of control. Still for that read-out and setting: as for `COCc1oc(-c2ccc(OC)nc2)cc1C(Nc1ccc(C(=O)N(C)CCC(=O)O)cc1)C1CCCCC1` (centres unmarked) [Example 147, 3-[{[4-({cyclohexyl[2-(methoxymethyl)-5-(6-methoxypyridin-3-yl)furan-3-yl]methyl}amino)phenyl]carbonyl}(methyl)amino]propanoic acid], the figure is 8.6 % of control. In the case of `CCc1sc(C2CCCCC2)cc1C(Nc1ccc(C(=O)NCCC(=O)O)cc1)C1CCCCC1` (centres unmarked) [Ex. 79, 3-{[(4-{[cyclohexyl(5-cyclohexyl-2-ethylthiophen-3-yl)methyl]amino}phenyl)carbonyl]amino}propanoic acid], the IC50 in experiment [1] is 97 nM.

Consider `CCc1oc(-c2ccc(C(F)(F)F)cc2)cc1C(CC(C)C)Oc1ccc(C(=O)NCCC(=O)O)cc1` (centres unmarked) [Ex. 5, 3-{[4-(1-{2-ethyl-5-[4-(trifluoromethyl)phenyl]-3-furyl}-3-methylbutoxy)benzoyl]amino}propanoic acid], for which the IC50 in experiment [1] is 630 nM.

`Cc1oc(-c2ccc(OC(F)(F)F)cc2)cc1C(Nc1ccc(C(=O)NCCC(=O)O)cc1)C1CCCCC1` (centres unmarked) [Ex. 53, 3-({4-[(cyclohexyl{2-methyl-5-[4-(trifluoromethoxy)phenyl]-3-furyl}methyl)amino]benzoyl}amino)propanoic acid] gave an IC50 in experiment [1] of 110 nM. `COc1ccc(-c2cc(C(CC(C)C)Nc3ccc(C(=O)N(C)CCC(=O)O)cc3)c(C)o2)cn1` (centres unmarked) [Example 149, 3-[{[4-({1-[5-(6-methoxypyridin-3-yl)-2-methylfuran-3-yl]-3-methylbutyl}amino)phenyl]carbonyl}(methyl)amino]propanoic acid]: the “increasing rate of blood glucose (% of control)” value in experiment [2] is recorded as 6.8 % of control. With `CCc1sc(-c2ccc(C(F)(F)F)cc2)cc1C(Nc1ccc(C(=O)NCCC(=O)O)cc1)C1CCCCC1` (centres unmarked) [Ex. 71, 3-[({4-[(cyclohexyl{2-ethyl-5-[4-(trifluoromethyl)phenyl]thiophen-3-yl}methyl)amino]phenyl}carbonyl)amino]propanoic acid], the IC50 in experiment [1] amounted to 57 nM.

In general, IC50 refers to the concentration that inhibits the measured activity by half. Read a low IC50 as higher potency.
